Laboratory results from ChEMBL document CHEMBL1201862, “PubChem BioAssay data set” (2004).
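Assay format: 96-well plates, 48-hour exposure. GI50: concentration for 50% inhibition of growth.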 Active and inactive are the calls of the source. Cut-off read from the data, not from the text of the source: active = GI50 up to about 1.1 µM and inactive = higher.

Legend:
Test in all cases: NCI-60 cell line screen, 48 h
NCI/ADR-RES = test system: NCI/ADR-RES
PC-3 = test system: PC-3
OVCAR-5 = test system: OVCAR-5
OVCAR-3 = test system: OVCAR-3
RPMI-8226 = test system: RPMI-8226
SN12C = test system: SN12C
OVCAR-8 = test system: OVCAR-8
IGROV-1 = test system: IGROV-1
CCRF-CEM = test system: CCRF-CEM
SK-MEL-28 = test system: SK-MEL-28
SNB-19 = test system: SNB-19
HCT-116 = test system: HCT-116
SF-268 = test system: SF-268
EKVX = test system: EKVX
K562 = test system: K562
UACC-257 = test system: UACC-257
A498 = test system: A498
UACC-62 = test system: UACC-62
Malme-3M = test system: Malme-3M
LOX IMVI = test system: LOX IMVI

Measured: GI50

O=C(O)C1=C/C(=C(/c2ccccc2)c2cc(C(=O)O)c(O)c3ccccc23)c2ccccc2C1=O
active: CCRF-CEM < 0.01 µM
inactive: NCI/ADR-RES > 100 µM | PC-3 > 100 µM | OVCAR-5 > 100 µM | OVCAR-3 > 100 µM | RPMI-8226 > 100 µM | SN12C > 100 µM | OVCAR-8 > 100 µM | IGROV-1 > 100 µM | SK-MEL-28 > 100 µM | SNB-19 > 100 µM | HCT-116 > 100 µM | SF-268 > 100 µM | EKVX > 100 µM | K562 > 100 µM | UACC-257 > 100 µM | A498 > 100 µM | UACC-62 > 100 µM | Malme-3M > 100 µM

COc1cc2c(cc1OCCN1CCN(CCOc3cc4c(cc3OC)C(=O)N3CCC[C@H]3C=N4)CC1)N=C[C@@H]1CCCN1C2=O
inactive: NCI/ADR-RES > 100 µM | PC-3 25.9 µM | OVCAR-5 26.2 µM | OVCAR-3 25.9 µM | RPMI-8226 1.56 µM | SN12C 9.46 µM | OVCAR-8 35.3 µM | IGROV-1 33.5 µM | SK-MEL-28 60 µM | SNB-19 35.5 µM | HCT-116 29.5 µM | SF-268 13.1 µM | EKVX > 96.6 µM | K562 15 µM | UACC-257 > 56.6 µM | A498 37.1 µM | UACC-62 14.3 µM | Malme-3M 9.14 µM

NCCCCNCCCNC(=O)c1csc(-c2nc(CCN)sc2Cl)n1
inactive: NCI/ADR-RES > 100 µM | PC-3 > 100 µM | OVCAR-5 > 100 µM | OVCAR-3 > 100 µM | RPMI-8226 > 100 µM | SN12C > 100 µM | OVCAR-8 > 100 µM | IGROV-1 > 100 µM | CCRF-CEM > 100 µM | SK-MEL-28 > 100 µM | SNB-19 > 100 µM | HCT-116 > 100 µM | SF-268 > 100 µM | EKVX > 100 µM | K562 > 100 µM | UACC-257 > 100 µM | A498 > 100 µM | UACC-62 > 100 µM | Malme-3M > 100 µM

O=c1nc(Oc2c(F)c(F)c(F)c(F)c2F)ccn1C1OC(CO)C(O)C1O (configuration not stated)
inactive: NCI/ADR-RES > 100 µM | PC-3 > 100 µM | OVCAR-5 > 100 µM | LOX IMVI > 100 µM | OVCAR-3 53.8 µM | RPMI-8226 > 100 µM | SN12C > 100 µM | OVCAR-8 > 100 µM | IGROV-1 > 100 µM | CCRF-CEM > 100 µM | SK-MEL-28 > 100 µM | SNB-19 > 100 µM | HCT-116 > 100 µM | SF-268 > 100 µM | EKVX > 100 µM | K562 > 100 µM | UACC-257 > 100 µM | A498 > 100 µM | UACC-62 > 100 µM

Cc1[nH]c2ncn3nc(C(Cl)(Cl)Cl)nc3c2c1Cc1ccccc1
inactive: NCI/ADR-RES > 100 µM | PC-3 > 100 µM | OVCAR-5 > 100 µM | OVCAR-3 > 100 µM | RPMI-8226 > 100 µM | SN12C > 100 µM | OVCAR-8 > 100 µM | IGROV-1 > 100 µM | CCRF-CEM > 100 µM | SK-MEL-28 > 100 µM | SNB-19 > 100 µM | HCT-116 > 100 µM | SF-268 > 100 µM | EKVX > 100 µM | UACC-257 > 100 µM | A498 > 100 µM | UACC-62 > 100 µM | Malme-3M > 100 µM

COc1ccc2oc(=N)c(C(N)=O)cc2c1
inactive: NCI/ADR-RES 53.3 µM | PC-3 37.9 µM | OVCAR-5 > 100 µM | LOX IMVI 37.4 µM | OVCAR-3 37.4 µM | RPMI-8226 > 100 µM | SN12C 74.5 µM | OVCAR-8 > 100 µM | IGROV-1 30.5 µM | CCRF-CEM 33.2 µM | SK-MEL-28 79.4 µM | SNB-19 38.4 µM | HCT-116 50.9 µM | SF-268 44.3 µM | K562 > 100 µM | UACC-257 > 100 µM | A498 44.2 µM | UACC-62 29.8 µM

Clc1ccc(OCc2nnc(CCCCCCCCc3nnc(COc4ccc(Cl)cc4)o3)o2)cc1
inactive: NCI/ADR-RES > 100 µM | PC-3 > 100 µM | OVCAR-5 > 100 µM | OVCAR-3 > 100 µM | RPMI-8226 > 100 µM | SN12C 43.8 µM | SK-MEL-28 > 100 µM | SNB-19 34.1 µM | HCT-116 10.5 µM | SF-268 32.3 µM | EKVX > 100 µM | K562 48.1 µM | UACC-257 > 100 µM | A498 > 100 µM | UACC-62 > 100 µM | Malme-3M 3.58 µM
